Source: PubChem BioAssay (NCI)
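At the GI50, growth is halved. TGI: total growth inhibition.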

Experiments:
Test in all cases: NCI anticancer screen, dose series, 384-well format
[1] = test system: SW-620 colon
[2] = test system: SNB-19 CNS
[3] = test system: U251 glioblastoma
[4] = test system: LOX IMVI melanoma
[5] = test system: HL-60(TB) leukemia
[6] = test system: SK-MEL-5 melanoma
[7] = test system: NCI-H460 NSCLC
[8] = test system: NCI-H322M lung
[9] = test system: UACC-62 melanoma
[10] = test system: NCI-H522 lung
[11] = test system: SN12C renal
[12] = test system: TK-10 renal
[13] = test system: MDA-MB-231 breast
[14] = test system: NCI-H226 lung
[15] = test system: PC-3 prostate
[16] = test system: SR leukemia
[17] = test system: RPMI-8226 leukemia
[18] = test system: MCF7 breast
[19] = test system: UO-31 renal
[20] = test system: UACC-257 melanoma
[21] = test system: BT-549 breast
[22] = test system: M14 melanoma
[23] = test system: T-47D breast
[24] = test system: CAKI-1 renal

CCNC(=O)c1cc2c(-c3cc(C(C)(C)O)ccc3Oc3c(C)cc(F)cc3C)cn(C)c(=O)c2[nH]1 showed a TGI [1] of 15600 nM, a GI50 [2] of 2010 nM and a TGI [2] of 13200 nM. It also gave a GI50 [3] of 2540 nM, a TGI [3] of 10900 nM and a GI50 [4] of 507 nM. The TGI [4] was 1840 nM, the GI50 [5] was 145 nM and the TGI [5] was 618 nM. For the same compound, the GI50 [6] was 1270 nM, the TGI [6] was 3680 nM and the GI50 [7] was 2870 nM. It also gave a TGI [7] of 12400 nM, a GI50 [8] of 1610 nM and a TGI [8] of 11900 nM. It also gave a GI50 [9] of 152 nM, a TGI [9] of 4060 nM and a GI50 [10] of 17.6 nM. For the same compound, the TGI [10] was 933 nM, the GI50 [11] was 3230 nM and the TGI [11] was 13600 nM. It also gave a GI50 [12] of 366 nM, a TGI [12] of 2960 nM and a GI50 [13] of 505 nM. For the same compound, the TGI [13] was 12100 nM, the GI50 [14] was 1260 nM and the TGI [14] was 11500 nM. For the same compound, the GI50 [15] was 1410 nM, the TGI [15] was 12600 nM and the GI50 [16] was 32.8 nM. It also gave a TGI [16] of 1300 nM, a GI50 [17] of 12.5 nM and a TGI [17] of 693 nM. The GI50 [18] was 48.4 nM, the TGI [18] was 1820 nM and the GI50 [19] was 2230 nM. The TGI [19] was 13000 nM, the GI50 [20] was 748 nM and the TGI [20] was 10400 nM. For the same compound, the GI50 [21] was 298 nM, the TGI [21] was 1920 nM and the GI50 [22] was 1590 nM. The TGI [22] was 16900 nM, the GI50 [23] was 1310 nM and the TGI [23] was 8300 nM. For the same compound, the GI50 [24] was 265 nM and the TGI [24] was 10700 nM.
